Numbered stars: 1 amine (or outer) side, 2 acyl side, 3 side chain; on linkers, the order of the positions; unused ones are H or OH. Square brackets hold non-standard residues; d marks the D form. Side chains are listed from the residue outwards. Peptide text beside a SMILES is read from it. * marks the point of attachment. C20 diacid = O=C(O)CCCCCCCCCCCCCCCCCCC(=O)*; C18 diacid = O=C(O)CCCCCCCCCCCCCCCCC(=O)*; γGlu = O=C(O)[C@H](CCC(=O)[*:2])N[*:1]; αMeY = C[C@](N)(Cc1ccc(O)cc1)C(=O)O; αMeL = CC(C)C[C@](C)(N)C(=O)O; Orn = NCCC[C@H](N)C(=O)O; AEEA = NCCOCCOCC(=O)O; Aib = CC(C)(N)C(=O)O
Assays:
[1] = target: human GLP-1 receptor (GLP-1R) (Homo sapiens, UniProt P43220); assay: cAMP pharmacological functional assay in presence of casein, hGLP-1R; format: cell-based; details: HEK293 cells expressing hGLP-1R, 0.1% Casein, geometric mean; read-out: hGLP1R cAMP Rel EC50 nM (SEM, n)
[2] = target: T1, human GLP-1R (Homo sapiens, UniProt P43220); assay: GLP-1R CHO cell β-arrestin recruitment assay; format: cell-based; parameters: host or cells: CHO-K1 PathHunter cells, assay-ready frozen; details: for EC50: CHO-K1 cells, PathHunter β-arrestin-2 recruitment, 0.1% casein, read-out: hGLP1R B-Arrestin2 Rel EC50 uM (SEM, n); for hGLP1R B-Arrestin2 % Top: normalized to GLP-1 maximum control
In short: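 Peptide-induced β-arrestin-2 recruitment measured by enzyme-fragment complementation luminescence after 90 min at 37 °C plus 60 min detection at RT.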

[3] = target: T1, human GLP-1R; assay: GLP-1R HEK293 cell membrane [35S]GTPγS binding assay; format: biochemical; parameters: expressed in transfected cells; host or cells: HEK293 cells expressing human GLP-1R; membranes; details: HEK293 cell membranes expressing human GLP-1R, [35S]GTPγS binding; read-out: hGLP1R GTPgS Rel EC50 nM (SEM, n)
In short: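 Agonist-driven Gαs activation read as [35S]GTPγS ([…]) binding to receptor-expressing HEK293 membranes, 30 min at room temperature, pH 7.4. Detection by anti-Gαs immunocapture on scintillation beads; EC50 derived from four-parameter logistic concentration-response fit.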

[4] = target: T2, gastric inhibitory peptide receptor (GIPR) (Homo sapiens, UniProt P48546); assay: cAMP pharmacological functional assay in presence of casein, hGIPR; format: cell-based; details: HEK293 cells expressing hGIPR, 0.1% Casein, geometric mean; read-out: hGIPR cAMP Rel EC50 nM (SEM, n)
T2 sequence (P48546 22-466): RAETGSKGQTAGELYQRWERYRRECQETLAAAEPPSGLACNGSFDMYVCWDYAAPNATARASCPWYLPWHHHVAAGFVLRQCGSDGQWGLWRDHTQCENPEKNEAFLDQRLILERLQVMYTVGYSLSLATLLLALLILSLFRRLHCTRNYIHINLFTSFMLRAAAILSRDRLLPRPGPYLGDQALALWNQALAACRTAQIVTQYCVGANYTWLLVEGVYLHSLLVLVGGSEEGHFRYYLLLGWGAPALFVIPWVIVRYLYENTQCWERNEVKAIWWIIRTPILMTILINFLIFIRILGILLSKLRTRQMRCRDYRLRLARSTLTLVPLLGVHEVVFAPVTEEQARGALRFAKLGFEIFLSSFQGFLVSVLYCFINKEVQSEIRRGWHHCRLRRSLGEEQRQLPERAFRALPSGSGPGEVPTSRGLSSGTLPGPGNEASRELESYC

Sequence of human GLP-1 receptor (GLP-1R) (P43220 24-463): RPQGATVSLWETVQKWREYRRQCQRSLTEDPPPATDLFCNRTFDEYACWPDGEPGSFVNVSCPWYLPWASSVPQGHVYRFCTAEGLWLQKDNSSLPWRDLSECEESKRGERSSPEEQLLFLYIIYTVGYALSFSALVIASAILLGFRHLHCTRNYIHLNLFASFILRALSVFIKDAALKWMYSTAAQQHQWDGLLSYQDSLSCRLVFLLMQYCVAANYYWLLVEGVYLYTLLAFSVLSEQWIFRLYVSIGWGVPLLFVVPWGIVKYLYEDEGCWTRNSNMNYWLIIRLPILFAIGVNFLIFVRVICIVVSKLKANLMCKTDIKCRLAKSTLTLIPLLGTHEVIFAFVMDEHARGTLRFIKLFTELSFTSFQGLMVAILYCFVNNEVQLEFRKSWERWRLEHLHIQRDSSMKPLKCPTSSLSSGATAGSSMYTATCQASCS
T1 sequence (P43220 24-463): as above

| Structure (SMILES) | EC50 [1] [nM] | EC50 [2] [µM] | hGLP1R B-Arrestin2 % Top [2] [%] | EC50 [3] [nM] | EC50 [4] [nM] |
| --- | --- | --- | --- | --- | --- |
| CC[C@H](C)[C@H](NC(=O)[C@H](CC(C)C)NC(=O)[C@H](Cc1ccc(O)cc1)NC(=O)[C@H](CCC(=O)O)NC(=O)[C@@H](NC(=O)[C@H](Cc1ccccc1)NC(=O)[C@H](CCC(=O)O)NC(=O)C(C)(C)NC(=O)[C@H](CCC(N)=O)NC(=O)[C@H](C)NC(=O)[C@H](CCCCNC(=O)COCCOCCNC(=O)COCCOCCNC(=O)CC[C@H](NC(=O)CCCCCCCCCCCCCCCCC(=O)O)C(=O)O)NC(=O)[C@H](CCCN)NC(=O)[C@H](CC(=O)O)NC(=O)[C@H](CC(C)C)NC(=O)[C@](C)(CC(C)C)NC(=O)[C@@H](NC(=O)[C@H](CO)NC(=O)[C@H](Cc1ccc(O)cc1)NC(=O)[C@H](CC(=O)O)NC(=O)[C@H](CO)NC(=O)[C@@H](NC(=O)[C@H](Cc1ccccc1)NC(=O)[C@@H](NC(=O)CNC(=O)[C@H](CCC(=O)O)NC(=O)C(C)(C)NC(=O)[C@H](N)Cc1ccc(O)cc1)[C@@H](C)O)[C@@H](C)O)[C@@H](C)CC)[C@@H](C)CC)C(=O)N[C@@H](C)C(=O)NCC(=O)NCC(=O)N1CCC[C@H]1C(=O)N[C@@H](CO)C(=O)N[C@@H](CO)C(=O)NCC(=O)N[C@@H](C)C(=O)N1CCC[C@H]1C(=O)N1CCC[C@H]1C(=O)N1CCC[C@H]1C(=O)N[C@@H](CO)C(N)=O [Example 368] (H-[dY][Aib]EGTFTSDYSI[αMeL]LD[Orn]K([AEEA-AEEA-γGlu-C18 diacid])AQ[Aib]EFIEYLIAGGPSSGAPPPS-NH2) | 0.108 | 0.0479 | 21.3 | 0.495 | 0.0757 |
| CC[C@H](C)[C@H](NC(=O)[C@H](CC(C)C)NC(=O)[C@H](Cc1ccc(O)cc1)NC(=O)[C@H](CCC(=O)O)NC(=O)[C@@H](NC(=O)[C@H](Cc1ccccc1)NC(=O)[C@H](CC(=O)O)NC(=O)C(C)(C)NC(=O)[C@H](CCC(N)=O)NC(=O)[C@H](C)NC(=O)[C@H](CCCCNC(=O)COCCOCCNC(=O)COCCOCCNC(=O)CC[C@H](NC(=O)CCCCCCCCCCCCCCCCCCC(=O)O)C(=O)O)NC(=O)[C@H](CCCN)NC(=O)[C@H](CC(=O)O)NC(=O)[C@H](CC(C)C)NC(=O)[C@](C)(CC(C)C)NC(=O)[C@@H](NC(=O)[C@H](CO)NC(=O)[C@H](Cc1ccc(O)cc1)NC(=O)[C@H](CC(=O)O)NC(=O)[C@H](CO)NC(=O)[C@@H](NC(=O)[C@H](Cc1ccccc1)NC(=O)[C@@H](NC(=O)CNC(=O)[C@H](CCC(=O)O)NC(=O)C(C)(C)NC(=O)[C@H](N)Cc1ccc(O)cc1)[C@@H](C)O)[C@@H](C)O)[C@@H](C)CC)[C@@H](C)CC)C(=O)N[C@@H](C)C(=O)NCC(=O)NCC(=O)N1CCC[C@H]1C(=O)N[C@@H](CO)C(=O)N[C@@H](CO)C(=O)NCC(=O)N[C@@H](C)C(=O)N1CCC[C@H]1C(=O)N1CCC[C@H]1C(=O)N1CCC[C@H]1C(=O)N[C@@H](CO)C(N)=O [Example 369] (H-[dY][Aib]EGTFTSDYSI[αMeL]LD[Orn]K([AEEA-AEEA-γGlu-C20 diacid])AQ[Aib]DFIEYLIAGGPSSGAPPPS-NH2; N-terminus assumed) | 0.101 | 0.0414 | 19.9 | 0.381 | 0.166 |
| CC[C@H](C)[C@H](NC(=O)[C@H](CC(C)C)NC(=O)[C@H](Cc1ccc(O)cc1)NC(=O)[C@H](CCC(=O)O)NC(=O)[C@@H](NC(=O)[C@H](Cc1ccccc1)NC(=O)[C@H](CCC(=O)O)NC(=O)C(C)(C)NC(=O)[C@H](CCC(N)=O)NC(=O)[C@H](C)NC(=O)[C@H](CCCCNC(=O)COCCOCCNC(=O)COCCOCCNC(=O)CC[C@H](NC(=O)CCCCCCCCCCCCCCCCCCC(=O)O)C(=O)O)NC(=O)[C@H](CCCN)NC(=O)[C@H](CC(=O)O)NC(=O)[C@H](CC(C)C)NC(=O)[C@](C)(CC(C)C)NC(=O)[C@@H](NC(=O)[C@H](CO)NC(=O)[C@H](Cc1ccc(O)cc1)NC(=O)[C@H](CC(=O)O)NC(=O)[C@H](CO)NC(=O)[C@@H](NC(=O)[C@H](Cc1ccccc1)NC(=O)[C@@H](NC(=O)CNC(=O)[C@H](CCC(=O)O)NC(=O)C(C)(C)NC(=O)[C@H](N)Cc1ccc(O)cc1)[C@@H](C)O)[C@@H](C)O)[C@@H](C)CC)[C@@H](C)CC)C(=O)N[C@@H](C)C(=O)NCC(=O)NCC(=O)N1CCC[C@H]1C(=O)N[C@@H](CO)C(=O)N[C@@H](CO)C(=O)NCC(N)=O [Example 370] (H-[dY][Aib]EGTFTSDYSI[αMeL]LD[Orn]K([AEEA-AEEA-γGlu-C20 diacid])AQ[Aib]EFIEYLIAGGPSSG-NH2) | 0.186 | 0.0099 | 23.0 | 0.428 | 0.117 |
| CC[C@H](C)[C@H](NC(=O)[C@H](CC(C)C)NC(=O)[C@H](Cc1ccc(O)cc1)NC(=O)[C@H](CCC(=O)O)NC(=O)[C@@H](NC(=O)[C@H](Cc1ccccc1)NC(=O)[C@H](CCC(=O)O)NC(=O)C(C)(C)NC(=O)[C@H](CCC(N)=O)NC(=O)[C@H](C)NC(=O)[C@H](CCCCNC(=O)COCCOCCNC(=O)CC[C@H](NC(=O)CCCCCCCCCCCCCCCCCCC(=O)O)C(=O)O)NC(=O)[C@H](CCCN)NC(=O)[C@H](CC(=O)O)NC(=O)[C@H](CC(C)C)NC(=O)[C@](C)(CC(C)C)NC(=O)[C@@H](NC(=O)[C@H](CO)NC(=O)[C@H](Cc1ccc(O)cc1)NC(=O)[C@H](CC(=O)O)NC(=O)[C@H](CO)NC(=O)[C@@H](NC(=O)[C@H](Cc1ccccc1)NC(=O)[C@@H](NC(=O)CNC(=O)[C@H](CCC(=O)O)NC(=O)C(C)(C)NC(=O)[C@H](N)Cc1ccc(O)cc1)[C@@H](C)O)[C@@H](C)O)[C@@H](C)CC)[C@@H](C)CC)C(=O)N[C@@H](C)C(=O)NCC(=O)NCC(=O)N1CCC[C@H]1C(=O)N[C@@H](CO)C(=O)N[C@@H](CO)C(=O)NCC(=O)N[C@@H](C)C(=O)N1CCC[C@H]1C(=O)N1CCC[C@H]1C(=O)N1CCC[C@H]1C(=O)N[C@@H](CO)C(N)=O [Example 371] (H-[dY][Aib]EGTFTSDYSI[αMeL]LD[Orn]K([AEEA-γGlu-C20 diacid])AQ[Aib]EFIEYLIAGGPSSGAPPPS-NH2) | 0.132 | 0.0142 | 21.7 | 0.27 | 0.135 |
| CC[C@H](C)[C@H](NC(=O)[C@H](CC(C)C)NC(=O)[C@](C)(Cc1ccc(O)cc1)NC(=O)[C@H](CCC(=O)O)NC(=O)[C@@H](NC(=O)[C@H](Cc1ccccc1)NC(=O)[C@H](CCC(=O)O)NC(=O)C(C)(C)NC(=O)[C@H](CCC(N)=O)NC(=O)[C@H](C)NC(=O)[C@H](CCCCNC(=O)COCCOCCNC(=O)CC[C@H](NC(=O)CCCCCCCCCCCCCCCCCCC(=O)O)C(=O)O)NC(=O)[C@H](CCCCN)NC(=O)[C@H](CC(=O)O)NC(=O)[C@H](CC(C)C)NC(=O)[C@](C)(CC(C)C)NC(=O)[C@@H](NC(=O)[C@H](CO)NC(=O)[C@H](Cc1ccc(O)cc1)NC(=O)[C@H](CC(=O)O)NC(=O)[C@H](CO)NC(=O)[C@@H](NC(=O)[C@H](Cc1ccccc1)NC(=O)[C@@H](NC(=O)CNC(=O)[C@H](CCC(=O)O)NC(=O)C(C)(C)NC(=O)[C@H](N)Cc1ccc(O)cc1)[C@@H](C)O)[C@@H](C)O)[C@@H](C)CC)[C@@H](C)CC)C(=O)N[C@@H](C)C(=O)NCC(=O)NCC(=O)N1CCC[C@H]1C(=O)N[C@@H](CO)C(=O)N[C@@H](CO)C(=O)NCC(=O)N[C@@H](C)C(=O)N1CCC[C@H]1C(=O)N1CCC[C@H]1C(=O)N1CCC[C@H]1C(=O)N[C@@H](CO)C(N)=O [Example 372] (H-[dY][Aib]EGTFTSDYSI[αMeL]LDKK([AEEA-γGlu-C20 diacid])AQ[Aib]EFIE[αMeY]LIAGGPSSGAPPPS-NH2) | 0.365 | 0.00981 | 32.9 | 0.379 | 0.0781 |

Source: US12252524B2, “GIP/GLP1 co-agonist compounds” (Eli Lilly and Company, priority 2018, dated 2025)
